Test results from US20230399312A1, “SUBSTITUTED PYRIMIDINES AND METHODS OF USE” (THERAVANCE BIOPHARMA R&D IP, LLC, priority 2020, published 2023).

Assays:
[1] = biological target: T1, recombinant human ALK5 (TGF-βR1) protein (Homo sapiens, UniProt P36897); experiment: Biochemical ALK5 (TGF-βR1) assay to measure pKi (LANCE Ultra ULight kinase assay); conditions: apparent pKi, converted from pIC50 by Cheng-Prusoff
T1 construct: purchased Life Technologies PR9075A
T1 sequence (P36897 34-503): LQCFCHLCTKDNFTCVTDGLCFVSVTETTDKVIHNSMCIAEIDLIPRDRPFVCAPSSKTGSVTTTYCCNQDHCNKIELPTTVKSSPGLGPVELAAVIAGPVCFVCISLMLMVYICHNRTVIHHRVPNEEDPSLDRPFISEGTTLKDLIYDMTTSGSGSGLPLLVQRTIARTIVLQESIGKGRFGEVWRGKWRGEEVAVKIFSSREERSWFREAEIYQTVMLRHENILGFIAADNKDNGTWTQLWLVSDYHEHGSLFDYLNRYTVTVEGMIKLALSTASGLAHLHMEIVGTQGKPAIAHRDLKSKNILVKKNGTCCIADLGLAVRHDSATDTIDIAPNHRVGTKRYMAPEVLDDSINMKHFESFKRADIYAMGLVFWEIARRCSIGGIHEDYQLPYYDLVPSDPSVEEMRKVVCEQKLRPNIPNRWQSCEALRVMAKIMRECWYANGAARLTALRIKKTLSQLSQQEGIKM
Procedure, shortened: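 Cmpd + enzyme, 60 min RT; ATP from 125 μM (5×) stock, 60 min 37 °C; stop 12 mM EDTA/Eu anti-pThr1342 Topo2α Ab (pH 7.0 buffer); TR-FRET 665 nm. DMSO = max, SD-208 = min signal. 4-PL pIC50 → pKi (Cheng-Prusoff).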

[2] = tested on: TGF-β-stimulated SMAD3 phosphorylation in BEAS-2B cells; experiment: Cellular ALK5 potency assay, inhibition of TGF-β stimulated pSMAD3 formation in BEAS-2B cells; assay type: cell-based; conditions: Homo sapiens, pSMAD3, TGF-β 10 ng/mL, read-out: BEAS2B pIC50 (converted)
Procedure, shortened: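 Cells were seeded overnight, rinsed into HEPES/BSA-supplemented HBSS, and dosed with serially diluted compound for 1 h at 37 °C, 5% CO2. TGF-β stimulation (10 ng/mL final) followed for 30 min, then lysis and AlphaLISA pSMAD3 measurement; potency reported as pIC50.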

| SMILES | Ki [1] | IC50 [2] |
| --- | --- | --- |
| Cc1cccc(-c2nccc(Nc3ccnc(Nc4cccc(S(=O)(=O)N5CCNCC5)c4)n3)n2)n1 [Compound 306, N4-[2-(6-methyl-2-pyridyl)pyrimidin-4-yl]-N2-(3-piperazin-1-ylsulfonylphenyl)pyrimidine-2,4-diamine] | 3.98 to 31.6 nM | 25.1 to 158 nM |
| Cc1cccc(-c2nccc(Nc3ccnc(Nc4ccc(CN5CCC(C(=O)O[C@H]6CCN(C)C6)CC5)cc4)n3)n2)n1 [Compound 297, [(3S)-1-methylpyrrolidin-3-yl] 1-[[4-[[4-[[2-(6-methyl-2-pyridyl)pyrimidin-4-yl]amino]pyrimidin-2-yl]amino]phenyl]methyl] piperidine-4-carboxylate] | 0.0398 to 0.316 nM | 200 to 1260 nM |
| Cc1cccc(-c2nccc(Nc3ccnc(Nc4ccc(F)c(CO)c4)n3)n2)n1 [Compound 294, [2-fluoro-5-[[4-[[2-(6-methyl-2-pyridyl)pyrimidin-4-yl]amino]pyrimidin-2-yl]amino]phenyl]methanol] | 0.0398 to 0.316 nM | ≤ 20 nM |
| Cc1cccc(-c2nccc(Nc3ccnc(Nc4ccc(CN5CCCC(C(=O)OC6CCN(C)C6)C5)cc4)n3)n2)n1 (stereo not shown) [Compound 29, (1-methylpyrrolidin-3-yl) 1-[[4-[[4-[[2-(6-methyl-2-pyridyl)pyrimidin-4-yl]amino]pyrimidin-2-yl]amino]phenyl]methyl] piperidine-3-carboxylate] | ≤ 0.0316 nM | ≤ 20 nM |
| Cc1cccc(-c2nccc(Nc3ccnc(Nc4ccc(C5CCNC5)cc4)n3)n2)n1 (stereo not shown) [Compound 231, N4-[2-(6-methyl-2-pyridyl)pyrimidin-4-yl]-N2-(4-pyrrolidin-3-ylphenyl)pyrimidine-2,4-diamine] | 0.0398 to 0.316 nM | 25.1 to 158 nM |
| Cc1cccc(-c2nccc(Nc3ccnc(Nc4ccc(CN5CC(C(=O)O[C@H]6CCNC6)C5)cc4)n3)n2)n1 [Compound 174, [(3S)-pyrrolidin-3-yl] 1-[[4-[[4-[[2-(6-methyl-2-pyridyl)pyrimidin-4-yl]amino]pyrimidin-2-yl]amino]phenyl]methyl] azetidine-3-carboxylate] | 0.0398 to 0.316 nM | 25.1 to 158 nM |
| CC[C@@H](C)OC(=O)CC1CNCCN1c1ccc(Nc2nccc(Nc3ccnc(-c4cccc(C)n4)n3)n2)cc1 (stereo partly drawn) [Compound 9, [(1R)-1-methylpropyl] 2-[1-[4-[[4-[[2-(6-methyl-2-pyridyl)pyrimidin-4-yl]amino]pyrimidin-2-yl]amino]phenyl]piperazin-2-yl]acetate] | 0.0398 to 0.316 nM | 25.1 to 158 nM |
| Cc1cccc(-c2nccc(Nc3ccnc(Nc4ccc(CN5CCSCC5)cc4)n3)n2)n1 [Compound 104, N4-[2-(6-methyl-2-pyridyl)pyrimidin-4-yl]-N2-[4-(thiomorpholinomethyl)phenyl] pyrimidine-2,4-diamine] | 0.0398 to 0.316 nM | 25.1 to 158 nM |
| Cc1cccc(-c2nccc(Nc3ccnc(Nc4ccc(N5CC(N)C5)cc4)n3)n2)n1 [Compound 98, N2-[4-(3-aminoazetidin-1-yl)phenyl]-N4-[2-(6-methyl-2-pyridyl)pyrimidin-4-yl]pyrimidine-2,4-diamine] | 0.0398 to 0.316 nM | 25.1 to 158 nM |
| Cc1cccc(-c2nccc(Nc3ccnc(Nc4ccc(C)c(CO)c4)n3)n2)n1 [Compound 61, [2-methyl-5-[[4-[[2-(6-methyl-2-pyridyl)pyrimidin-4-yl]amino]pyrimidin-2-yl]amino]phenyl]methanol] | 0.0398 to 0.316 nM | 25.1 to 158 nM |
| Cc1cccc(-c2nccc(Nc3ccnc(Nc4ccc(N5CC6(CNC6)C5)cc4)n3)n2)n1 [Compound 15, N2-[4-(2,6-diazaspiro[3.3]heptan-2-yl)phenyl]-N4-[2-(6-methyl-2-pyridyl)pyrimidin-4-yl]pyrimidine-2,4-diamine] | 0.0398 to 0.316 nM | 25.1 to 158 nM |
| Cc1cccc(-c2nccc(Nc3ccnc(Nc4ccc(CN5C[C@@H](C)NC[C@H]5C)cc4)n3)n2)n1 [Compound 32, N2-[4-[[(2R,5R)-2,5-dimethylpiperazin-1-yl]methyl]phenyl]-N4-[2-(6-methyl-2-pyridyl)pyrimidin-4-yl]pyrimidine-2,4-diamine] | 0.0398 to 0.316 nM | 25.1 to 158 nM |
| CNCCNS(=O)(=O)c1cccc(Nc2nccc(Nc3ccnc(-c4cccc(C)n4)n3)n2)c1 [Compound 273, N-[2-(methylamino)ethyl]-3-[[4-[[2-(6-methyl-2-pyridyl)pyrimidin-4-yl]amino]pyrimidin-2-yl]amino]benzenesulfonamide] | 0.0398 to 0.316 nM | 25.1 to 158 nM |
| Cc1cccc(-c2nccc(Nc3ccnc(Nc4ccc(-c5cnn(C)c5)cc4)n3)n2)n1 [Compound 56, N2-[4-(1-methylpyrazol-4-yl)phenyl]-N4-[2-(6-methyl-2-pyridyl)pyrimidin-4-yl]pyrimidine-2,4-diamine] | 0.398 to 3.16 nM | 25.1 to 158 nM |

The next lines start with results.

| Ki [1] | SMILES | IC50 [2] |
| --- | --- | --- |
| 0.0398 to 0.316 nM | Cc1cccc(-c2nccc(Nc3ccnc(Nc4cc(C(=O)N5CCNCC5)cs4)n3)n2)n1 [Compound 389, [5-[[4-[[2-(6-methyl-2-pyridyl)pyrimidin-4-yl]amino]pyrimidin-2-yl]amino]-3-thienyl]-piperazin-1-yl-methanone] | 25.1 to 158 nM |
| 0.0398 to 0.316 nM | CN1CCN(C2CCN(c3ccc(Nc4nccc(Nc5ccnc(-c6cc(Cl)ccc6F)n5)n4)cc3)CC2)CC1 [Compound 436, N4-[2-(5-chloro-2-fluoro-phenyl)pyrimidin-4-yl]-N2-[4-[4-(4-methylpiperazin-1-yl)-1-piperidyl]phenyl]pyrimidine-2,4-diamine] | 25.1 to 158 nM |
| 0.0398 to 0.316 nM | Cc1cccc(-c2nccc(Nc3ccnc(Nc4ccc(N5CCC(NCc6ccccc6)CC5)cc4)n3)n2)n1 [Compound 450, N2-[4-[4-(benzylamino)-1-piperidyl]phenyl]-N4-[2-(6-methyl-2-pyridyl)pyrimidin-4-yl]pyrimidine-2,4-diamine] | 200 to 1260 nM |
| 0.0398 to 0.316 nM | Cc1cccc(-c2nccc(Nc3ccnc(Nc4ccc(CN5CCN[C@H](CO)C5)cc4)n3)n2)n1 [Compound 463, [(2S)-4-[[4-[[4-[[2-(6-methyl-2-pyridyl)pyrimidin-4-yl]amino]pyrimidin-2-yl]amino]phenyl]methyl]piperazin-2-yl]methanol] | 25.1 to 158 nM |
| 0.0398 to 0.316 nM | Cc1cccc(-c2nccc(Nc3ccnc(Nc4ccc(CN5CCN(C(C)C)CC5)cc4)n3)n2)n1 [Compound 370, N2-[4-[(4-isopropylpiperazin-1-yl)methyl]phenyl]-N4-[2-(6-methyl-2-pyridyl)pyrimidin-4-yl]pyrimidine-2,4-diamine] | 25.1 to 158 nM |
| 0.398 to 3.16 nM | Cc1cccc(-c2nccc(Nc3ccnc(Nc4ccc(NCCN5CCOCC5)cc4)n3)n2)n1 [Compound 355, N4-[2-(6-methyl-2-pyridyl)pyrimidin-4-yl]-N2-[4-(2-morpholinoethylamino)phenyl] pyrimidine-2,4-diamine] | 25.1 to 158 nM |
| 0.0398 to 0.316 nM | Cc1cccc(-c2nccc(Nc3ccnc(Nc4ccc(CN5[C@@H](C)CNC[C@@H]5C)cc4)n3)n2)n1 [Compound 409, N2-[4-[[(2S,6S)-2,6-dimethylpiperazin-1-yl]methyl]phenyl]-N4-[2-(6-methyl-2-pyridyl)pyrimidin-4-yl]pyrimidine-2,4-diamine] | 25.1 to 158 nM |
| 0.0398 to 0.316 nM | Cc1cccc(-c2nccc(Nc3ccnc(Nc4cccc(CN5CCNCC5)c4)n3)n2)n1 [Compound 362, N4-[2-(6-methyl-2-pyridyl)pyrimidin-4-yl]-N2-[3-(piperazin-1-ylmethyl)phenyl]pyrimidine-2,4-diamine] | 25.1 to 158 nM |
| 0.398 to 3.16 nM | Cc1cccc(-c2nccc(Nc3ccnc(Nc4nc(CN5CCC[C@@H](C(=O)O[C@H]6CCN(C)C6)C5)cs4)n3)n2)n1 [Compound 508, (S)-1-methylpyrrolidin-3-yl (R)-1-((2-((4-((2-(6-methylpyridin-2-yl)pyrimidin-4-yl)amino)pyrimidin-2-yl)amino)thiazol-4-yl)methyl)piperidine-3-carboxylate] | 25.1 to 158 nM |
| 0.0398 to 0.316 nM | Cc1cccc(-c2nccc(Nc3ccnc(Nc4ccc(C(=O)OC[C@@H]5CCCNC5)nc4)n3)n2)n1 [Compound 625, [(3R)-3-piperidyl]methyl 5-[[4-[[2-(6-methyl-2-pyridyl)pyrimidin-4-yl]amino]pyrimidin-2-yl]amino]pyridine-2-carboxylate] | 25.1 to 158 nM |
| 0.0398 to 0.316 nM | Cc1cccc(-c2nccc(Nc3ccnc(Nc4ccc(C(=O)O[C@@H]5CCCNC5)nc4)n3)n2)n1 [Compound 594, [(3R)-3-piperidyl] 5-[[4-[[2-(6-methyl-2-pyridyl)pyrimidin-4-yl]amino]pyrimidin-2-yl]amino]pyridine-2-carboxylate] | 200 to 1260 nM |
| 3.98 to 31.6 nM | Cc1cccc(-c2nccc(Nc3ccnc(Nc4ccc(-c5cn[nH]c5)cc4)n3)n2)n1 [Compound 535, N4-[2-(6-methyl-2-pyridyl)pyrimidin-4-yl]-N2-[4-(1H-pyrazol-4-yl)phenyl]pyrimidine-2,4-diamine] | ≤ 20 nM |
